4 compounds from BindingDB's records for doi:10.1016/j.chembiol.2017.02.001 (The University of Tokyo, 2017) can be followed below.

Holding throughout (conditions): pH 7
Experiment [1] has as its target T1, Pancreatic alpha-amylase (Homo sapiens, UniProt P04746).
T1 sequence (P04746 whole entry): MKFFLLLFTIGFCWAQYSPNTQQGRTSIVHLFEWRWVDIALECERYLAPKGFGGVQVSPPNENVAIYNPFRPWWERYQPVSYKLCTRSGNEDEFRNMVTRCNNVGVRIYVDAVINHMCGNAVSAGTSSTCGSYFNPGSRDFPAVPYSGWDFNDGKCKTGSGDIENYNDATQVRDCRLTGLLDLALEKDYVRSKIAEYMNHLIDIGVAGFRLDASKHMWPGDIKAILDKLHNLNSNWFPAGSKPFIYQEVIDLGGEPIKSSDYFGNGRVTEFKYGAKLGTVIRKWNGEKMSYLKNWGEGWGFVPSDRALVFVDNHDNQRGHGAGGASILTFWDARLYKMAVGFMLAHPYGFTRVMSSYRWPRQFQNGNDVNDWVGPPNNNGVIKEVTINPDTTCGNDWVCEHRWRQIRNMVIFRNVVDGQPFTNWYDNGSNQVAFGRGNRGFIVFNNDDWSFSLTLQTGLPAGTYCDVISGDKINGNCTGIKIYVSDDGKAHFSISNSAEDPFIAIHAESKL
The experiment can be described thus: Inhibition Kinetics Assay. On the procedure: The release of 2-chloro-4-nitrophenol resulting from the HPA-catalyzed hydrolysis of 2-chloro-4-nitrophenyl a-maltotrioside (CNPG3) was monitored at 400 nm. Reactions were run at 30 °C in 50 mM NaPi and 100 mM NaCl (pH 7.0). Reactions were monitored over 5 min to measure the initial reaction rate.

Experiment [2] has as its target T2, Alpha-amylase 1A (Homo sapiens, UniProt P0DUB6).
T2 sequence (P0DUB6 whole entry): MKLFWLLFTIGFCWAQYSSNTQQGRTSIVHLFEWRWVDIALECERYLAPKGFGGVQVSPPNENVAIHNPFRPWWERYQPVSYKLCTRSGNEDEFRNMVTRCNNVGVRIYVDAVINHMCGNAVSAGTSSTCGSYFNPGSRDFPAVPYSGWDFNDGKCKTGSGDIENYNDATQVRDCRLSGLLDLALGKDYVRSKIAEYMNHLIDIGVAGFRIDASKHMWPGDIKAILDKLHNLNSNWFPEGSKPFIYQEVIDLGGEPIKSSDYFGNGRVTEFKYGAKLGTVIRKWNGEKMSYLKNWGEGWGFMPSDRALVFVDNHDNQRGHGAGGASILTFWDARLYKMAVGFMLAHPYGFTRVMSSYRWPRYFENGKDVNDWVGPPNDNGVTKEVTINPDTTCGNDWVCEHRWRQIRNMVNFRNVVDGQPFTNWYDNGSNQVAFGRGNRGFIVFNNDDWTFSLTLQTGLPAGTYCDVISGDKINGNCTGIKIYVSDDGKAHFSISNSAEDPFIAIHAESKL
The experiment is described as follows: Inhibition Assay (piHA-Dm). On the procedure: (§1) After kinetic analysis with HPA, piHA-Dm was tested as an inhibitor of ten additional enzymes. The conditions are listed as follows: Agrobacterium faecalis β-glucosidase (2.5 × 10^-4 mg/mL enzyme, 50 mM sodium phosphate pH 7, 4 mM PNP β-gal); Bos taurus β-galactosidase (6.9 × 10^-2 mg/mL enzyme, 50 mM sodium phosphate pH 7, 1 mM PNP β-gal); S. cerevisiae α-glucosidase (5 × 10^-3 mg/mL enzyme, 50 mM sodium phosphate pH 7, 1 mM α-glc); Human maltase-glucoamylase (8.1 × 10^-2 mg/mL enzyme, 50 mM sodium phosphate pH 7, 1 mM α-glc); Mouse maltase-glucoamylase (8.1 × 10^-2 mg/mL enzyme, 50 mM sodium phosphate pH 7, 1 mM α-glc); Butyrivibrio fibrisolvens α-amylase (1.7 × 10^-4 mg/mL enzyme, 50 mM sodium phosphate 100 mM NaCl pH 7, 1 mM CNPG3); Aspergillus oryzae α-amylase (1.9 × 10^-4 mg/mL enzyme, 50 mM sodium phosphate 100 mM NaCl pH 7, 1 mM CNPG3); Porcine pancreatic α-amylase (6.7 × 10^-3 mg/mL enzyme, 50 mM sodium phosphate 100 mM N

For experiment [3], the target named is Maltase-glucoamylase (Homo sapiens, UniProt O43451). The experiment is described as follows: Inhibition Assay (piHA-Dm). On the procedure: as §1
Maltase-glucoamylase, sequence (O43451 whole entry): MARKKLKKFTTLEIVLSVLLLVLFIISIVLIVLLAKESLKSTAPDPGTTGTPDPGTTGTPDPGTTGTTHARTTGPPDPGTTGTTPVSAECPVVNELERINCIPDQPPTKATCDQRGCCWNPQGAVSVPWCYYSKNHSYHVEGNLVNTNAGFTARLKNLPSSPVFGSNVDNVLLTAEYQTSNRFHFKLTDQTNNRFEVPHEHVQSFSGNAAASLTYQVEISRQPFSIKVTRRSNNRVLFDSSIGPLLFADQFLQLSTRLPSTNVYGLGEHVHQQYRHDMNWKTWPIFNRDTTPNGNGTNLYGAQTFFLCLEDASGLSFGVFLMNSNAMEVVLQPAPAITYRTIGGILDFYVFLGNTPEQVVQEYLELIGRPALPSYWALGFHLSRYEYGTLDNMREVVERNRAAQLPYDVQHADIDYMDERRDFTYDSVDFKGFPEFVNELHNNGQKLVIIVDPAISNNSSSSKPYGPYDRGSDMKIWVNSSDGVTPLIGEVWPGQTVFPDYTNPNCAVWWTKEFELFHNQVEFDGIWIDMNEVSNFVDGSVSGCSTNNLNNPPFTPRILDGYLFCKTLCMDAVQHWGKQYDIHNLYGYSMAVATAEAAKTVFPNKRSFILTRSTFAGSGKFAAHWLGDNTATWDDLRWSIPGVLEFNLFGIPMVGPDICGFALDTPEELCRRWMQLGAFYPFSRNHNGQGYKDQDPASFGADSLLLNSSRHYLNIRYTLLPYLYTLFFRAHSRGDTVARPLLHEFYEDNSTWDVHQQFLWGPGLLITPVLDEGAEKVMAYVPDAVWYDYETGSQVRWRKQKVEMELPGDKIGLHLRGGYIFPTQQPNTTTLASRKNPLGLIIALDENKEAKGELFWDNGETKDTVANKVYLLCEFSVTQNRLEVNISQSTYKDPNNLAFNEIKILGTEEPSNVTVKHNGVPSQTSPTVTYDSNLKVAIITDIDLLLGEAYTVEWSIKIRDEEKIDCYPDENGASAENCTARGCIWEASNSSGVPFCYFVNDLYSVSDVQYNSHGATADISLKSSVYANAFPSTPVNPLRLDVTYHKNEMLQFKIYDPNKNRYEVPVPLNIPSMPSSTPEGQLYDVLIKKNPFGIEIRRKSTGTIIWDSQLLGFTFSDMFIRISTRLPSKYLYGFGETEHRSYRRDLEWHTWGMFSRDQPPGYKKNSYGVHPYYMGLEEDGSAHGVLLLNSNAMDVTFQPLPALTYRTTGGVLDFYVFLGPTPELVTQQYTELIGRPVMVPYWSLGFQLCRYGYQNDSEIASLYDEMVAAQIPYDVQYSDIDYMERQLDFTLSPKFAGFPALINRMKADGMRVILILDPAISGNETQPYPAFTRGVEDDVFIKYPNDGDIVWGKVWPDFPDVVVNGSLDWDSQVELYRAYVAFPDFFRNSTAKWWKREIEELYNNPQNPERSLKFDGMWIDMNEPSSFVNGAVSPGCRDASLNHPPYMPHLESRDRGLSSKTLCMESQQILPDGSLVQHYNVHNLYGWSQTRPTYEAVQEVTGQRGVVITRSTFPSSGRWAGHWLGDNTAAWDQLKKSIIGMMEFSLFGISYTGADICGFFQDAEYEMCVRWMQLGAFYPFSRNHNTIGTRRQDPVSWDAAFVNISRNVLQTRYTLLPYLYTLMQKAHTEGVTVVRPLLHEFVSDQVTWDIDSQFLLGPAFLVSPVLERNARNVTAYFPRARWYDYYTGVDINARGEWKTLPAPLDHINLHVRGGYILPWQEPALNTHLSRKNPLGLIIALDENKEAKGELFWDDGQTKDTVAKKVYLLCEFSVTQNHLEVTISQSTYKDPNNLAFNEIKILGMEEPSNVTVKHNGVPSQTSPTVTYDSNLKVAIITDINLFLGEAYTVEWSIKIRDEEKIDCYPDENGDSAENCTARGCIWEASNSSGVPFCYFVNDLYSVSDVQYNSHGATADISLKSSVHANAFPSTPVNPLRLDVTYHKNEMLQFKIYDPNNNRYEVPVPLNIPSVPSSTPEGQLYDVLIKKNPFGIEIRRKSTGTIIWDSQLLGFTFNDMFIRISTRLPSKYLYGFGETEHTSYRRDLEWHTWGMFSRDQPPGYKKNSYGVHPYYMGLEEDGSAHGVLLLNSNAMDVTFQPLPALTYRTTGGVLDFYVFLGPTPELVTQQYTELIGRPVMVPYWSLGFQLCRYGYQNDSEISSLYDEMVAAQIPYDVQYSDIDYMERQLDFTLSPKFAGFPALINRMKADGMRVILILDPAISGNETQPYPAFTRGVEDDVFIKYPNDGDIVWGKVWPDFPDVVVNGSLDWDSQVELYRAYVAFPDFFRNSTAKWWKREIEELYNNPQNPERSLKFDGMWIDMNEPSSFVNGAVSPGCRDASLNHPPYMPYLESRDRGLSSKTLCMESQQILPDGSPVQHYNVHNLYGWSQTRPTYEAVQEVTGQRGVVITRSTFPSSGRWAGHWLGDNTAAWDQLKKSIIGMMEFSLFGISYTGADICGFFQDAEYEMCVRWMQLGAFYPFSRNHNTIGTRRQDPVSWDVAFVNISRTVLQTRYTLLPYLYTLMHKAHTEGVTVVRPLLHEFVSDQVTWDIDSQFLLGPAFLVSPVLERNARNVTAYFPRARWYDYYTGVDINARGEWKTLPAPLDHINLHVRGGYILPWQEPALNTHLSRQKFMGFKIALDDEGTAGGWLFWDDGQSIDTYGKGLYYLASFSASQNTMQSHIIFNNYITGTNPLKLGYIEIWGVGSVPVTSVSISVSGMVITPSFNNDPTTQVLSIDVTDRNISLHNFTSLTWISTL
Experiment [4] has as its target T3, Pancreatic alpha-amylase (Sus scrofa, UniProt P00690).
T3 sequence (P00690 whole entry): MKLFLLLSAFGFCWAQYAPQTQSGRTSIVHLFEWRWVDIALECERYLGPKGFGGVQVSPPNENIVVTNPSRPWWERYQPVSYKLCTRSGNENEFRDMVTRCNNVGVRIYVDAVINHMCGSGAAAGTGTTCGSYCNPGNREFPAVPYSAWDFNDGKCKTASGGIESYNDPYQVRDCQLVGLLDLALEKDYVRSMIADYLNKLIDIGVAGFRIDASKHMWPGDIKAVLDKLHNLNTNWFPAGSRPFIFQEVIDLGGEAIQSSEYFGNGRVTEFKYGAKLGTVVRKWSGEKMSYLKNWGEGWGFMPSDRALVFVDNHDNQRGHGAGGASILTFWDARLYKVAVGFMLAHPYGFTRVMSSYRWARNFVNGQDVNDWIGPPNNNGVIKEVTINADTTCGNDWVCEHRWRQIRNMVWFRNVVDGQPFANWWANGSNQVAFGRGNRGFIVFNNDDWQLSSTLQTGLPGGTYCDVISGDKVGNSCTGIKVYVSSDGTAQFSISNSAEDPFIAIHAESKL
The experiment is described as follows: Inhibition Assay (piHA-Dm). On the procedure: as §1

In experiment [5] the target is Soluble maltase-glucoamylase (Mus musculus, UniProt Q6XK23). The experiment is described as follows: Inhibition Assay (piHA-Dm). On the procedure:
as §1

SMILES strings stand for the structures. Where a SMILES comes first, the peptide text is derived from it.

The Ki is a measure of affinity in units of concentration, obtained from inhibition or displacement. Lower therefore signals a stronger hold on the target. A word on the IC50: it is the point on the concentration scale where inhibition reaches its midpoint. A lower IC50 goes with inhibition by little substance.

Soluble maltase-glucoamylase, sequence (Q6XK23 whole entry): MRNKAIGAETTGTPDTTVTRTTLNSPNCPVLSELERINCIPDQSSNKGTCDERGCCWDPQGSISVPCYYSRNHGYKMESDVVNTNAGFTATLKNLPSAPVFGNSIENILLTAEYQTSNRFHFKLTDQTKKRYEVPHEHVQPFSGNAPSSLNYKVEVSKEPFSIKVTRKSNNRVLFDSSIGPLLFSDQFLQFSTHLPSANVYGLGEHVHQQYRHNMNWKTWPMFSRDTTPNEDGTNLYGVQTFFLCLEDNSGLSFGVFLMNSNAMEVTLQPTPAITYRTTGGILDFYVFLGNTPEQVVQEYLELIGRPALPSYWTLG

In the case of `CC[C@H](C)[C@H](NC(=O)[C@H](CCCNC(=N)N)NC(=O)[C@@H](NC(=O)[C@H](Cc1cnc[nH]1)NC(=O)[C@H](CCCNC(=N)N)NC(=O)[C@H](C)NC(=O)[C@H](Cc1c[nH]c2ccccc12)NC(=O)[C@H](CS)N1SCC(=O)N[C@@H](Cc2ccc(O)cc2)C(=O)N2CCC[C@H]2C(=O)N[C@@H](Cc2ccc(O)cc2)C(=O)N[C@@H](CO)C1=O)C(C)C)C(=O)N[C@@H](CCCNC(=N)N)C(=O)N[C@H](CCC(=O)O)C(=O)N[C@@H](CC(N)=O)C(N)=O` [piHA-D1], in experiment [1], the Ki turned out to be 1 nM.

For the compound `CC(C)[C@H](NC(=O)[C@H](Cc1c[nH]c2ccccc12)NC(=O)[C@H](CS)N1SCC(=O)N[C@@H](Cc2ccc(O)cc2)C(=O)N2CCC[C@H]2C(=O)N[C@@H](Cc2ccc(O)cc2)C(=O)N[C@@H](CO)C1=O)C(=O)N[C@@H](CCCNC(=N)N)C(=O)N[C@@H](Cc1cnc[nH]1)C(=O)N[C@@H](CO)C(=O)N[C@@H](CC(=O)O)C(=O)N1CCC[C@H]1C(=O)N[C@@H](Cc1cnc[nH]1)C(=O)N[C@@H](CCCCN)C(=O)N[C@@H](Cc1ccccc1)C(N)=O` [piHA-D3], in experiment [1], the affinity, expressed as Ki, was 2.7 nM.

In the case of `CC(C)[C@H](NC(=O)[C@H](Cc1c[nH]c2ccccc12)NC(=O)[C@H](CS)N1SCC(=O)N[C@@H](Cc2ccc(O)cc2)C(=O)N2CCC[C@H]2C(=O)N[C@@H](Cc2ccc(O)cc2)C(=O)N[C@@H](CO)C1=O)C(=O)N[C@@H](CCCNC(=N)N)C(=O)N[C@@H](Cc1cnc[nH]1)C(N)=O` [piHA-Dm], the affinity in experiment [1], expressed as Ki, was 7 nM. Besides, half-maximal inhibition in experiment [2] (IC50) required 34 nM.

On to `CC(C)[C@H](NC(=O)[C@H](Cc1c[nH]c2ccccc12)NC(=O)[C@@H]1CSCC(=O)N[C@@H](Cc2ccc(O)cc2)C(=O)N2CCC[C@H]2C(=O)N[C@@H](Cc2ccc(O)cc2)C(=O)N[C@@H](CO)C(=O)N1)C(=O)N[C@@H](CCCNC(=N)N)C(=O)N[C@@H](Cc1cnc[nH]1)C(N)=O` [piHA-Dm] (HELM PEPTIDE1{[O=C(C[*:3])[*:2]].Y.P.Y.S.C.W.V.R.H.[am]}$PEPTIDE1,PEPTIDE1,1:R3-6:R3$$$V2.0), for which the values for the IC50 in experiment [3], in experiment [4] and in experiment [5] were 520 nM, 8.5 nM and 990 nM, respectively.
